US20260108527A1, “POLO LIKE KINASE 4 INHIBITORS” (ORIC Pharmaceuticals, Inc., priority 2022, published 2026)

Biological target: T1, human recombinant Aurora A (Homo sapiens, UniProt O14965)
T1 construct: purchased ThermoFisher PR5935A
T1 sequence (O14965 1-403): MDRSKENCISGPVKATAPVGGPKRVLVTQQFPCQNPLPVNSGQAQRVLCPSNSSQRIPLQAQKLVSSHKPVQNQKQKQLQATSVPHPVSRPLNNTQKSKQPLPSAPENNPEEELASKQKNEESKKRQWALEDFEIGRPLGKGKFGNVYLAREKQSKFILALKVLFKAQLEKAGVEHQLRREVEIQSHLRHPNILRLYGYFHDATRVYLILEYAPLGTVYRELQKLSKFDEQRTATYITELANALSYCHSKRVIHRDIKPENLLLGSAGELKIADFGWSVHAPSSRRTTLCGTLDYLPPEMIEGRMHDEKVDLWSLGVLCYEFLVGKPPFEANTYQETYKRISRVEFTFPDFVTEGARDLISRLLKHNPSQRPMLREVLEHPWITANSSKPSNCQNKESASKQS
Assay: Aurora A Kinase Biochemical Assay (ADP-Glo)
Conditions: selectivity ratio; Aurora A 2.5 nM, 20 μM ATP
Method: Activity of human recombinant Aurora A (ThermoFisher, cat #PR5935A) was measured by quantification of adenosine diphosphate (ADP) using the ADP-Glo Kinase Assay Kit (Promega, cat #V9102). Test compounds were solubilized in dimethyl sulfoxide (DMSO) and dispensed into 384-well white polystyrene nonbinding plates (Greiner, cat #781094) using the Echo acoustic dispenser (Labcyte Inc.) in a 11-point 3-fold titration in duplicates. 5 μL of 5.0 nM Aurora A in assay buffer (50 mM HEPES, pH 7.5, 0.01% Brij-35, 0.01% BSA, 10 mM MgCl2, 1 mM EGTA, 1 mM DTT) was added to the plates. Test compounds and Aurora A were incubated for 15 minutes at room temperature (RT). Then 5 μL of a 40 μM adenosine triphosphate (ATP) (Promega, cat #V915B) and 9.3 μM Myelin Basic Protein (MBP) (SignalChem, cat #M42-51N) substrate solution in assay buffer was added and the reaction mixture was incubated for 2 hours at RT. The final concentration of Aurora A, ATP and MBP in the reactions were 2.5 nM, 20 μM and 4.7 μM, respectively. Reactions were stopped and the remaining ATP depleted by adding 10 μL of ADP-Glo reagent (Promega, cat #V912B) and incubating for 40 minutes at RT. The simultaneous conversion of the remaining ADP to ATP and measurement of the newly synthesized ATP was achieved by addition of 20 μL Kinase Detection reagent (Promega, cat #V914B), incubation for 30 min at RT, and luminescence detection using the EnVision plate reader (PerkinElmer). Reactions lacking Aurora A were used as 100% inhibition controls. Reactions containing DMSO alone were used as 0% inhibition controls. The IC50 values reported in Table 2 were determined using four parameter non-linear regression curve fit.

SMILES | [Aurora A IC50 (nM)]/[PLK4 IC50 (nM)]
COc1ccc2c(c1)[C@]1(C[C@H]1c1ccc3c(Nc4cc5c(cc4OC)S(=O)(=O)C=C5)n[nH]c3c1)C(=O)N2 [Example 6, 6-methoxy-5-({6-[(1R,2S)-5′-methoxy-2′-oxo-1′,2′-dihydrospiro[cyclopropane-1,3′-indol]-2-yl]-1H-indazol-3-yl}amino)-1H-1-benzothiophene-1,1-dione] | 581.0754
COc1ccc2c(c1)[C@]1(C[C@H]1c1ccc3c(Nc4cc(-c5cnn(C)c5)cnc4OC)n[nH]c3c1)C(=O)N2 [Example 26, (1R,2S)-5′-methoxy-2-(3-{[2-methoxy-5-(1-methyl-1H-pyrazol-4-yl)pyridin-3-yl]amino}-1H-indazol-6-yl)spiro[cyclopropane-1,3′-indol]-2′(1′H)-one] | 992.1456
CCOc1ncc(-c2nccs2)cc1Nc1n[nH]c2cc([C@@H]3C[C@@]34C(=O)Nc3ccc(OC)cc34)ccc12 [Example 41, (1R,2S)-2-(3-{[2-ethoxy-5-(1,3-thiazol-2-yl)pyridin-3-yl]amino}-1H-indazol-6-yl)-5′-methoxyspiro[cyclopropane-1,3′-indol]-2′(1′H)-one] | 4711.9113
COc1ccc2c(c1)[C@]1(C[C@H]1c1ccc3c(Nc4ccc(-c5nnn(C)n5)cc4OC)n[nH]c3c1)C(=O)N2 [Example 17, (1R,2S)-5′-methoxy-2-{3-[2-methoxy-4-(2-methyl-2H-tetrazol-5-yl)anilino]-1H-indazol-6-yl}spiro[cyclopropane-1,3′-indol]-2′(1′H)-one] | 1000
COc1ccc2c(c1)[C@]1(C[C@H]1c1ccc3c(Nc4nc(-c5cnn(C)c5)ncc4OC)n[nH]c3c1)C(=O)N2 [Example 31, (1R,2S)-5′-methoxy-2-(3-{[5-methoxy-2-(1-methyl-1H-pyrazol-4-yl)pyrimidin-4-yl]amino}-1H-indazol-6-yl)spiro[cyclopropane-1,3′-indol]-2′(1′H)-one] | 743.0555
CCOc1cnc(C#CC(C)(C)O)nc1Nc1n[nH]c2cc([C@@H]3C[C@@]34C(=O)Nc3ccc(OC)cc34)ccc12 [Example 45, (1R,2S)-2-(3-((5-ethoxy-2-(3-hydroxy-3-methylbut-1-yn-1-yl)pyrimidin-4-yl)amino)-1H-indazol-6-yl)-5′-methoxyspiro[cyclopropane-1,3′-indolin]-2′-one] | 42971.2230
COc1ccc2c(c1)[C@]1(C[C@H]1c1ccc3c(Nc4cc(-c5cnn(CC(F)F)c5)ccc4OC)n[nH]c3c1)C(=O)N2 [Example 39, (1R,2S)-2-(3-{5-[1-(2,2-difluoroethyl)-1H-pyrazol-4-yl]-2-methoxyanilino}-1H-indazol-6-yl)-5′-methoxyspiro[cyclopropane-1,3′-indol]-2′(1′H)-one] | 1647.6978
COc1ccc2c(c1)[C@]1(C[C@H]1c1ccc3c(Nc4cc(-c5nnn(C)n5)ccc4OC)n[nH]c3c1)C(=O)N2 [Example 21, (1R,2S)-5′-methoxy-2-{3-[2-methoxy-5-(2-methyl-2H-tetrazol-5-yl)anilino]-1H-indazol-6-yl}spiro[cyclopropane-1,3′-indol]-2′(1′H)-one] | 1900
COc1ccc2c(c1)[C@]1(C[C@H]1c1ccc3c(Nc4cc(-c5cscn5)ccc4OC)n[nH]c3c1)C(=O)N2 [Example 15, (1R,2S)-5′-methoxy-2-{3-[2-methoxy-5-(1,3-thiazol-4-yl)anilino]-1H-indazol-6-yl}spiro[cyclopropane-1,3′-indol]-2′(1′H)-one] | 146.5230
COc1ccc2c(c1)[C@]1(C[C@H]1c1ccc3c(Nc4cc(-c5cocn5)ccc4OC)n[nH]c3c1)C(=O)N2 [Example 16, (1R,2S)-5′-methoxy-2-{3-[2-methoxy-5-(1,3-oxazol-4-yl)anilino]-1H-indazol-6-yl}spiro[cyclopropane-1,3′-indol]-2′(1′H)-one] | 259.1
COc1ccc2c(c1)[C@]1(C[C@H]1c1ccc3c(Nc4ccc(C(C)=O)cc4OC)n[nH]c3c1)C(=O)N2 [Example 3, (1R,2S)-2-[3-(4-acetyl-2-methoxyanilino)-1H-indazol-6-yl]-5′-methoxyspiro[cyclopropane-1,3′-indol]-2′(1′H)-one] | 1671.3768
COc1ccc2c(c1)[C@]1(C[C@H]1c1ccc3c(Nc4cc(-c5ccon5)ccc4OC)n[nH]c3c1)C(=O)N2 [Example 32, (1R,2S)-5′-methoxy-2-{3-[2-methoxy-5-(1,2-oxazol-3-yl)anilino]-1H-indazol-6-yl}spiro[cyclopropane-1,3′-indol]-2′(1′H)-one] | 325.6348
COc1ccc2c(c1)[C@]1(C[C@H]1c1ccc3c(Nc4ccc(S(C)(=O)=O)cc4OC)n[nH]c3c1)C(=O)N2 [Example 2, (1R,2S)-2-{3-[4-(methanesulfonyl)-2-methoxyanilino]-1H-indazol-6-yl}-5′-methoxyspiro[cyclopropane-1,3′-indol]-2′(1′H)-one] | 801.1462

Results, then the compound that gave them:

[Aurora A IC50 (nM)]/[PLK4 IC50 (nM)] | SMILES
15611.2532 | CCOc1cc(-c2cn(C)cn2)ccc1Nc1n[nH]c2cc([C@@H]3C[C@@]34C(=O)Nc3ccc(OC)cc34)ccc12 [Example 29, (1R,2S)-2-{3-[2-ethoxy-4-(1-methyl-1H-imidazol-4-yl)anilino]-1H-indazol-6-yl}-5′-methoxyspiro[cyclopropane-1,3′-indol]-2′(1′H)-one]
10956.01173 | CCOc1cc(-c2cnccn2)ccc1Nc1n[nH]c2cc([C@@H]3C[C@@]34C(=O)Nc3ccc(OC)cc34)ccc12 [Example 7, (1R,2S)-2-{3-[2-ethoxy-4-(pyrazin-2-yl)anilino]-1H-indazol-6-yl}-5′-methoxyspiro[cyclopropane-1,3′-indol]-2′(1′H)-one]
727.2189 | CCOc1ncc(-c2nccs2)nc1Nc1n[nH]c2cc([C@@H]3C[C@@]34C(=O)Nc3ccc(OC)cc34)ccc12 [Example 35, (1R,2S)-2-(3-{[3-ethoxy-6-(1,3-thiazol-2-yl)pyrazin-2-yl]amino}-1H-indazol-6-yl)-5′-methoxyspiro[cyclopropane-1,3′-indol]-2′(1′H)-one]
1496.6799 | CCOc1ccc(-c2nccs2)cc1Nc1n[nH]c2cc([C@@H]3C[C@@]34C(=O)Nc3ccc(OC)cc34)ccc12 [Example 33, (1R,2S)-2-{3-[2-ethoxy-5-(1,3-thiazol-2-yl)anilino]-1H-indazol-6-yl}-5′-methoxyspiro[cyclopropane-1,3′-indol]-2′(1′H)-one]
27839.6436 | CCOc1ccc(-c2cnn(C)c2)cc1Nc1n[nH]c2cc([C@@H]3C[C@@]34C(=O)Nc3ccc(OC)cc34)ccc12 [Example 37, (1R,2S)-2-{3-[2-ethoxy-5-(1-methyl-1H-pyrazol-4-yl)anilino]-1H-indazol-6-yl}-5′-methoxyspiro[cyclopropane-1,3′-indol]-2′(1′H)-one]
14827.5862 | CCOc1cnc(-c2nccs2)cc1Nc1n[nH]c2cc([C@@H]3C[C@@]34C(=O)Nc3ccc(OC)cc34)ccc12 [Example 34, (1R,2S)-2-(3-{[5-ethoxy-2-(1,3-thiazol-2-yl)pyridin-4-yl]amino}-1H-indazol-6-yl)-5′-methoxyspiro[cyclopropane-1,3′-indol]-2′(1′H)-one]
27382.2563 | CCOc1cc2ccccc2nc1Nc1n[nH]c2cc([C@@H]3C[C@@]34C(=O)Nc3ccc(OC)cc34)ccc12 [Example 8, (1R,2S)-2-{3-[(3-ethoxyquinolin-2-yl)amino]-1H-indazol-6-yl}-5′-methoxyspiro[cyclopropane-1,3′-indol]-2′(1′H)-one]
2756.5515 | CCOc1cc(-n2cncn2)cnc1Nc1n[nH]c2cc([C@@H]3C[C@@]34C(=O)Nc3ccc(OC)cc34)ccc12 [Example 38, (1R,2S)-2-(3-{[3-ethoxy-5-(1H-1,2,4-triazol-1-yl)pyridin-2-yl]amino}-1H-indazol-6-yl)-5′-methoxyspiro[cyclopropane-1,3′-indol]-2′(1′H)-one]
538.2697 | COc1ccc2c(c1)[C@]1(C[C@H]1c1ccc3c(Nc4nc(-c5ncco5)ccc4OC)n[nH]c3c1)C(=O)N2 [Example 4, (1R,2S)-5′-methoxy-2-(3-{[3-methoxy-6-(1,3-oxazol-2-yl)pyridin-2-yl]amino}-1H-indazol-6-yl)spiro[cyclopropane-1,3′-indol]-2′(1′H)-one]
